This is an account of results in US6288051A, “7 α-(5-methylaminopentyl)-estratrienes, process for their production, pharmaceutical preparations that contain these 7 α(5-methylaminopentyl)-estratrienes as well as their use for the production of pharmaceutical agents” (Schering Aktiengesellschaft, priority 1996, dated 2001).

The subject of assay [1] is DMBA-induced breast cancer. The assay is described as follows: DMBA-induced breast cancer in rats. It counts as in vivo, rat. From the text:
2.2 DMBA*-induced breast cancer in rats
2.2. Influencing Tumor Growth in the […] Model in Rats (DMBA Tumor Model)
*9,10-Dimethyl-1,2-benanthracene
The growth of the DMBA-induced breast neoplasm of rats is largely dependent on estrogens and prolactin. Active antiestrogens, antigestagens, and aromatase inhibitors result in the inhibition of tumor growth, and substances that have antigonadotropic and androgenic properties also exert a tumor-inhibiting action.
45-47-day-old female rats (Sprague-Dawley, breeder ZiH or Mollegard), 8-10 animals per group.
The animals receive 10 mg of DMBA orally on a one-time basis. Then, the animals are examined weekly by palpation for tumor development. Six to 10 weeks after DNBA treatment, approximately 1 to 10 tumors develop per animal. The tumor size is determined once a week with the aid of a sliding gauge. If at least one tumor has reached a specific size (150 mm^2 of tumor surface area), an ovariectomy is performed on the animals, or the treatment of the animals with the test substance begins. The treatment is carried out in most cases daily for a period of about 28 days (for details on execution, see Test Plan). The tumor size is subsequently determined once a week.
The total tumor size per animal is determined before the beginning of treatment (initial values). For each group, the average values of the percentage changes of the tumor size relative to the initial value are then calculated. In addition, the percentage of animals per group is determined, whose tumors in each case: (1) have totally disappeared (total regression); partially disappeared (partial regression); (3) are unchanged (no change); or (4) are further enlarged (enlargement).
(§1) The values that are found are tested for significance in the Dunnett Test and are plotted graphically.

A further assay deals with MVLN cells. Description: Transactivation assay, MVLN cells transfixed with reporter gene Vit-TK-LUC. It counts as cell-based. To be noted: Homo sapiens, MVLN, read-out: IC50 [nM] MVLN cells. The procedure: (§2) The antiestrogenic action of the compounds according to the invention was determined in transactivation assays [Demirpence, E.; Duchesne M.-J.; Badia, E.; Gagne, D. and Pons, M.: MVLN Cells: A Bioluminescent MCF-7-Derived Cell Line to Study the Modulation of Estrogenic Activity; J. Steroid. Molec. Biol. Vol. 46, No. 3, 355-364 (1993) as well as Berry, M.; Metzeger D.; Chambon, P.: Role of the Two Activating Domains of the Estrogen Receptor in the Cell-type and Promoter-context Dependent Agonistic Activity of the Anti-estrogen 4-Hydroxytamoxifen; The EMBO Journal Vol. 9, 2811-2818 (1990)].
The IC50 values for the new compounds lie in the nanomolar range. […] The HeLa cells are transfixed with human estrogen receptor-expression vector (HEGO) and Vit-TK-CAT reporter genes, and the MVLN cells are transfixed with reporter gene Vit-TK-LUC: […]

Assay [2] has as its system NMU-induced breast cancer. The assay is described as follows: NMU-induced breast cancer in rats. It counts as in vivo, rat.
Source text: 2.3 NNMU^+ -induced breast cancer in rats
2.3 Influencing of Tumor Growth in the NMU^+ Model in Rats (MM Tumor Model)
^+ N-Methyl-N-nitrosourea
The growth of the NMU-induced breast neoplasm of rats is largely dependent on estrogens and, in contrast to the DMBA tumor model, less on prolactin. Active antiestrogens, aromatase inhibitors, and antigestagens lead to the inhibition of tumor growth. Substances with antigonadotrophic properties also exert a tumor-inhibiting action.
Female rats (Sprague-Dawley)
NMU=i.v., test substance: s.c./p.o. […]
p.o. = 0.1 or 0.2 ml/100 g/d in ethanol + peanut oil (1 + 9)
s.c. = 0.1 ml/100 g/d in ethanol + peanut oil (1 + 9)
The animals receive 50 mg/kg of NMU i.v. on a one-time basis. Then, the animals are examined once a week by palpation for tumor development. About 6-8 weeks after NMU treatment, one or more tumors develop per animal. At a minimum size of 150 mm^2 /tumor/animal, daily treatment (7× a week) begins with the test substance, and the determination of body weight+tumor size is done (with the aid of a sliding gauge) (1×/week).
as §1

A further assay has as its target T1, human estrogen receptor (Homo sapiens, UniProt P03372).
T1 construct: expressed in transfected cells; host or cells: HeLa
T1 sequence (P03372 1-595): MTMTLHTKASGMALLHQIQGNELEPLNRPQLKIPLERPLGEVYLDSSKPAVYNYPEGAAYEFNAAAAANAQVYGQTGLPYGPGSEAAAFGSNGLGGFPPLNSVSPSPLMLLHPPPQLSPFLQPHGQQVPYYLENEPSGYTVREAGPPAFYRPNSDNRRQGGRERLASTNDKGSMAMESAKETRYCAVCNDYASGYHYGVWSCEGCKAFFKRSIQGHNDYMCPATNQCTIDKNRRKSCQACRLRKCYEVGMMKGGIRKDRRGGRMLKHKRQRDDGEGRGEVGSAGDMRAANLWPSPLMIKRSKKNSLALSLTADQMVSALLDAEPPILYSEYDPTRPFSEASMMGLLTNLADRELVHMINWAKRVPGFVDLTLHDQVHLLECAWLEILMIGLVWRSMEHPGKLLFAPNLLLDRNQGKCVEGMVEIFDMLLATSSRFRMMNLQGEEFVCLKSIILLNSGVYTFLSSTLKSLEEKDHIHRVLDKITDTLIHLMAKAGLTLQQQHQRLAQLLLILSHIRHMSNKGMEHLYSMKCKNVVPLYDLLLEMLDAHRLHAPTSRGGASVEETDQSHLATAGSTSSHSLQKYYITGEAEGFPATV
The assay is described as follows: Transactivation assay, HeLa cells transfixed with human estrogen receptor-expression vector (HEGO) and Vit-TK-CAT reporter gene. It counts as cell-based. The procedure: as §2
The HeLa cells are transfixed with human estrogen receptor-expression vector (HEGO) and Vit-TK-CAT reporter genes, and the MVLN cells are transfixed with reporter gene Vit-TK-LUC: […]

Consider `CN(CCCCC[C@@H]1Cc2cc(O)ccc2[C@H]2CC[C@]3(C)[C@@H](O)CC[C@H]3[C@H]12)CCCSCCCC(F)(F)C(F)(F)F` [Example 1, 7α-{5-[N-Methyl-N-3-(4,4,5,5,5-pentafluoropentylthio)-propylamino]-pentyl}-estra-1,3,5(10)-triene-3,17β-diol], for which the “activity compared to tamoxifen (TAM)” value in assay [1] (DMBA, oral (FIG. 4)) was “even more strongly active than tamoxifen (TAM)”. Also, the “inhibition of tumor growth” value in assay [1] (oral, 3 mg/kg/day (FIG. 4)) is given as “completely inhibits tumor growth (no growth)”; in assay [2] (oral, 10 mg/kg/day), “complete inhibition of tumor growth”. Moreover, the 50% inhibitory concentration (IC50) in the assay on MVLN cells was 1 nM; against human estrogen receptor it was 0.3 nM. Further, the “activity compared to 7α-[9-(4,4,5,5,5-pentafluoropentanesulfinyl)-nonyl]-estra-1,3,5(10)-triene-3,17β-diol” value in assay [2] (NMU, oral) is listed as “clearly more strongly active”. Besides, the “inhibition of tumor growth, dose dependence” value in assay [2] (orally administered (FIG. 5)) is “inhibits tumor growth in a dose-dependent manner”.

The term IC50 denotes the concentration at which inhibition is half-maximal.
